The values that follow come from patent US20220241214A1, “NAN[…] W METHIDES AND COMPOSITIONS FOR USE” (priority 2019, published 2022).

Read-outs that look alike come from different tables or passages of the source. Where only a bound is given, the exact number is not on record here.

As a reminder, the IC50 is the concentration that gives 50% inhibition.

For data set [1] the following is noted: previous reported; cited from earlier work.
For another data set, the system named is PDX1 tumors. Kind of data set: Patient-derived xenograft (PDX1) model of endometrial cancer, tumor growth. To be noted: PDX1 mice, twice a week for 4 weeks; compared to control PLGA nanoparticles (combination: compared to all other groups). In kind it is in vivo. The method, then: Patient-derived xenograft (PDX) studies: A PDX model of endometrial cancer (PDX1) has been previously described (Luo et al., 2010). NOD.Cg-Prkdcscid Il2rgtm1Wjl/SzJ (NSG, Jackson Laboratories, Bar Harbor, Me.) immunodeficient female mice at 8 weeks of age were injected with passage 3 of PDX1 tumor tissue (10 mg/100 μl medium) into the right flank subcutaneously. The mice were randomly divided into 4 groups, with 5 mice per drug treated group, and 4 mice comprised the empty nanoparticle control group. Treatment was started on day 15 after engraftment of cells. The dose of pristimerin delivered in nanoparticles was 60 μg for each mouse and was administered by intravenous injection (IV) injection twice a week for a total of 4 weeks. The dose of cisplatin was […] for each mouse and was administered by intraperitoneal (IP) injection twice a week for a total of 4 weeks. After 2 weeks of treatment, tumors were measured weekly using calipers, and volumes were calculated using the formula length×width^2/2.
All animal studies were performed under animal protocols #7051085 approved by the University of Iowa Institutional Animal Care and Use Committee (Iowa City, Iowa). MTDH knockout mice were generated as described previously (Meng et al., 2015). […] After 2 weeks of treatment, tumors were measured weekly using calipers, and volumes were calculated using the formula […].
(In xenograft studies the graft and the host belong to different species.)

Data set [2] can be described thus: Solubility and pharmacokinetics (statement). Conditions: pristimerin in solution.
Another data set deals with MDA-MB-231 cells. The data set can be described thus: Cell viability by WST-1 assay in MDA-MB-231 cells. In kind it is cell-based. To be noted: Homo sapiens, pristimerin 72 hours. On the procedure: (§1) Cell viability was determined by WST-1 assay. Cells were seeded into 96-well plates (1×10^4 cells per well) then treated with cisplatin (Fresenius Kabi Oncology Ltd, Haryana, India) or the combination of cisplatin with pristimerin in solution (Cayman Chemical, Ann Arbor, Mich.). Cell viability was evaluated using the cell proliferation reagent WST-1 (Roche, Germany) according to the manufacturer's protocol. The absorbance was measured with a micro-plate reader (BioRad). Data were calculated as percent (%) viability relative to untreated control, which was set at 100%.
(§2) Cell viability was determined by WST-1 assay. Cells were seeded into 96-well plates (1×10^4 cells per well) then treated with cisplatin (Fresenius Kabi Oncology Ltd., Haryana, India) or the combination of cisplatin with pristimerin in solution (Cayman Chemical, Ann Arbor, Mich.). Cell viability was evaluated using the cell proliferation reagent WST-1 (Roche, Germany) according to the manufacturer's protocol. Absorbance was measured with a microplate reader (BioRad). Data were calculated as percent (%) viability relative to untreated control, which was set at 100%.
(In general: Tetrazolium assays rely on reduction of a dye to a coloured formazan, in cell work by metabolically active cells.)

Data set [3] addresses P-glycoprotein (P-gp) efflux transporter (Homo sapiens, UniProt P08183). To be noted: not told; cited from earlier work.
The next data set has as its system KLE cells. The data set can be described thus: Cell viability by WST-1 assay in KLE cells. Type of data set: cell-based. To be noted: Homo sapiens, pristimerin 72 hours. The method, then: as §1, §2
For the next data set, the system named is Hec50 cells. Kind of data set: Cell viability by WST-1 assay in Hec50 cells. Type of data set: cell-based. To be noted: pristimerin 72 hours. The method, then: as §1, §2

Sequence of P-glycoprotein (P-gp) efflux transporter (P08183 whole entry): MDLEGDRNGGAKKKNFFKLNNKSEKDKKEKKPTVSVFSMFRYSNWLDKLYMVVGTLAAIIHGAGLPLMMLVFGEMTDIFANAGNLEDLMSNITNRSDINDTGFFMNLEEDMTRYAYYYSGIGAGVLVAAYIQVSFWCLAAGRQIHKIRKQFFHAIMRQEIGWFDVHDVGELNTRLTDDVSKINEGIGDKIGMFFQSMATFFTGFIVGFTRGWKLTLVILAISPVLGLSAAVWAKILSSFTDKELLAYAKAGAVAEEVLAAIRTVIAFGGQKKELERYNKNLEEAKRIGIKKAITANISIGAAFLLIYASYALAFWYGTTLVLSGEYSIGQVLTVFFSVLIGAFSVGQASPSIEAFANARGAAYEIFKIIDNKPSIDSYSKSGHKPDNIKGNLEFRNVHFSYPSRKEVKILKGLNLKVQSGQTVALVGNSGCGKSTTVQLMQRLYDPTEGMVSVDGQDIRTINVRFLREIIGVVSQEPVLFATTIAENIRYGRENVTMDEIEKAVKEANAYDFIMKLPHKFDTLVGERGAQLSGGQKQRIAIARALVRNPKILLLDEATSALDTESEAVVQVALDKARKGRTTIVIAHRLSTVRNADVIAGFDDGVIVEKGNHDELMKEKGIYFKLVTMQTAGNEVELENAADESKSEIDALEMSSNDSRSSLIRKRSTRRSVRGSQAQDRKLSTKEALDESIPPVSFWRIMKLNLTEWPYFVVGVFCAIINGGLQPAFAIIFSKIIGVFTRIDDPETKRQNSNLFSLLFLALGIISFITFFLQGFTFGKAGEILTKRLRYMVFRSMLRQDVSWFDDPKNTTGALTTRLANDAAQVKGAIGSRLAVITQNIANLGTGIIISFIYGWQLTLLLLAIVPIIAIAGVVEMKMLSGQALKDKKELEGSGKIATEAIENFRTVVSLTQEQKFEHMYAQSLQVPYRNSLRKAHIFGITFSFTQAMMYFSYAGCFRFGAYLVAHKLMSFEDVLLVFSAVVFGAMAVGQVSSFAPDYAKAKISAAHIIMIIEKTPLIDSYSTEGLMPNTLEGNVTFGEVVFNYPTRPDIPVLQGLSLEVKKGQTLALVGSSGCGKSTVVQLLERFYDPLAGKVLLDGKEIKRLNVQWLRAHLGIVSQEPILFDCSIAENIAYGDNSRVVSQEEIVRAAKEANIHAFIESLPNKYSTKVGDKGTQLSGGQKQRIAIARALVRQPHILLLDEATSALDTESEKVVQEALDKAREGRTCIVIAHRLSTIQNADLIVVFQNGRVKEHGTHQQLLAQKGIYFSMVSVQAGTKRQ

With `CC1=C(O)C(=O)C=C2C1=CC=C1[C@@]2(C)CC[C@@]2(C)[C@@H]3C[C@](C)(C(=O)O)CC[C@]3(C)CC[C@]12C` [celastrol], the solubility and pharmacokinetics result in data set [1] was “poor”.

For `N.N.[Cl][Pt][Cl]` [cisplatin], in the data set on PDX1 tumors, the tumor growth result is “significantly inhibited”.

Consider `COC(=O)[C@]1(C)CC[C@]2(C)CC[C@]3(C)C4=CC=C5C(=CC(=O)C(O)=C5C)[C@]4(C)CC[C@@]3(C)[C@@H]2C1` [pristimerin, Pristimerin], for which, in data set [2], the solubility and pharmacokinetics result was “poor”. Further, the 50% inhibitory concentration (IC50) in the data set on MDA-MB-231 cells, in the data set with KLE cells and with Hec50 cells was less than 1000 nM each time. Also, the “substrate to P-gp” value in data set [3] was “substrate”.
